Results taken from patent US10561145B2, “Fused bicyclic heterocycle derivatives as pesticides” (Bayer CropScience Aktiengesellschaft, priority 2016, dated 2020).
Where two headings read alike, the source gives them in different places.

Experiments:
Myzus persicae [1] = experiment: Myzus persicae - spray test; type: in vivo; settings: application rate 20 g/ha, after 5 days, sprayed Chinese cabbage leaf discs, all stages of green peach aphid
Protocol: Myzus persicae—Spray Test Solvent: 78 parts by weight of acetone • • 1.5 parts by weight of dimethylformamide Emulsifier: alkylaryl polyglycol ether To produce a suitable active compound preparation, 1 part by weight of active compound is dissolved with the specified parts by weight of solvent and made up with water containing an emulsifier concentration of 1000 ppm until the desired concentration is attained. To produce further test concentrations, the formulation is diluted with emulsifier-containing water. Discs of Chinese cabbage leaves (Brassica pekinensis) infested by all stages of the green peach aphid (Myzus persicae) are sprayed with an active compound formulation of the desired concentration. After 5 days, the efficacy in % is determined. 100% means that all the aphids have been killed; 0% means that no aphids have been killed.

[2] = log P by HPLC on a reversed-phase column (C18), EEC Directive 79/831 Annex V.A8; type: physicochemical; settings: 55° C.
Protocol: The log P values are measured according to EEC Directive 79/831 Annex V.A8 by HPLC (high-performance liquid chromatography) on a reversed-phase column (C18). Temperature: 55° C. The LC-MS determination in the acidic range is carried out at pH 2.7 using the mobile phases 0.1% aqueous formic acid and acetonitrile (contains 0.1% formic acid); linear gradient from 10% acetonitrile to 95% acetonitrile. Called log P (HCOOH) or log P[a] in the table. The LC-MS determination in the neutral range is carried out at pH 7.8 using the mobile phases 0.001 molar aqueous ammonium bicarbonate solution and acetonitrile; linear gradient from 10% acetonitrile to 95% acetonitrile. Called log P (neutral) or log P[n] in the table. Calibration is carried out using unbranched alkan-2-ones (having 3 to 16 carbon atoms) with known log P values (log P values determined on the basis of the retention times by linear interpolation between two successive alkanones).

Phaedon cochleariae = Phaedon cochleariae - spray test; type: in vivo; settings: application rate 100 g/ha, after 7 days, sprayed Chinese cabbage leaf discs, mustard beetle larvae
Protocol: Phaedon cochleariae—Spray Test
Solvent: 78.0 parts by weight of acetone • • 1.5 parts by weight of dimethylformamide
Emulsifier: alkylaryl polyglycol ether
To produce a suitable active compound preparation, 1 part by weight of active compound is dissolved with the specified parts by weight of solvent and made up with water containing an emulsifier concentration of 1000 ppm until the desired concentration is attained. To produce further test concentrations, the formulation is diluted with emulsifier-containing water.
Discs of Chinese cabbage leaves (Brassica pekinensis) are sprayed with an active compound formulation of the desired concentration and, after drying, populated with larvae of the mustard beetle (Phaedon cochleariae).
After 7 days, the efficacy in % is determined. 100% means that all the beetle larvae have been killed; 0% means that no beetle larvae have been killed.

Myzus persicae [3] = experiment: Myzus persicae - oral test; type: in vivo; settings: application rate 4 ppm, after 5 days, green peach aphids, mixed population, oral uptake
Protocol: Myzus persicae—Oral Test Solvent: 100 parts by weight of acetone To produce a suitable preparation of active compound, 1 part by weight of active compound is dissolved using the specified parts by weight of solvent and made up with water until the desired concentration is attained. 50 μl of the active compound preparation are transferred into microtitre plates and made up to a final volume of 200 μl with 150 μl of IPL41 insect medium (33%+15% sugar). Subsequently, the plates are sealed with parafilm, which a mixed population of green peach aphids (Myzus persicae) within a second microtitre plate is able to puncture and imbibe the solution through it. After 5 days, the efficacy in % is determined. 100% means that all the aphids have been killed; 0% means that no aphids have been killed.

[4] = acidic range, pH 2.7, 0.1% aqueous formic acid/acetonitrile gradient, read-out: log P[a] (log P (HCOOH))
[5] = neutral range, pH 7.8, 0.001 molar aqueous ammonium bicarbonate/acetonitrile gradient, read-out: log P[n] (log P (neutral))

Row | SMILES | chromatographic logP [2, 4] | chromatographic logP [2, 5] | efficacy in % (aphids killed) (Myzus persicae [1]) | efficacy in % (beetle larvae killed) (Phaedon cochleariae) | efficacy in % (aphids killed) (Myzus persicae [3])
1 | CC[S+]([O-])c1c(-c2nc3cc(C(F)(F)F)cnc3n2C)ncc2ncsc12 (centres unmarked) [Example I-2, 7-(Ethylsulfinyl)-6-[3-methyl-6-(trifluoromethyl)-3H-imidazo[4,5-b]pyridin-2-yl][1,3]thiazolo[4,5-c]pyridine] | 3.09 | 2.98 |  |  | 
2 | CCSc1c(-c2nc3cc(C(F)(F)F)cnc3n2C)ncc2ncsc12 [Example I-3, 7-(Ethylsulfanyl)-6-[3-methyl-6-(trifluoromethyl)-3H-imidazo[4,5-b]pyridin-2-yl][1,3]thiazolo[4,5-c]pyridine] | 2.96 | 2.94 |  |  | 
3 | CCSc1c(-c2nc3cc(C(F)(F)F)ncc3n2C)ncc2ccsc12 [Example I-6] | 2.95 | 2.85 |  |  | 
4 | CCOC(=O)c1ncc2ncsc2c1SCC [XL-1, Ethyl 7-(ethylsulfanyl)[1,3]thiazolo[4,5-c]pyridine-6-carboxylate] | 2.23 | 2.17 |  |  | 
5 | CCSc1c(C(=O)O)ncc2ncsc12 [XLI-1, 7-(Ethylsulfanyl)[1,3]thiazolo[4,5-c]pyridine-6-carboxylic acid] | 0.88 |  |  |  | 
6 | CCOC(=O)c1ncc2ncsc2c1OS(=O)(=O)C(F)(F)F [XXXIV-1, Ethyl 7-{[(trifluoromethyl)sulfonyl]oxy}[1,3]thiazolo[4,5-c]pyridine-6-carboxylate] | 2.58 | 2.57 |  |  | 

Further lines, with some results ahead:

Row | chromatographic logP [2, 4] | chromatographic logP [2, 5] | SMILES | efficacy in % (aphids killed) (Myzus persicae [1]) | efficacy in % (beetle larvae killed) (Phaedon cochleariae) | efficacy in % (aphids killed) (Myzus persicae [3])
7 | 2.6 | 2.53 | CCS(=O)(=O)c1c(-c2nc3cc(C(F)(F)F)cnc3n2C)ncc2ncsc12 [Example I-1, 7-(Ethylsulfonyl)-6-[3-methyl-6-(trifluoromethyl)-3H-imidazo[4,5-b]pyridin-2-yl][1,3]thiazolo[4,5-c]pyridine] | 90% | 83% | 100%
8 | 2.88 | 2.82 | CCS(=O)(=O)c1c(-c2nc3cc(C(F)(F)F)cnc3n2C)ncc2ccsc12 [Example I-4] | 90% | 100% | 100%
9 | 2.53 | 2.4 | CCS(=O)(=O)c1c(-c2nc3cc(C(F)(F)F)ncc3n2C)ncc2ccsc12 [Example I-5] | 90% |  | 
10 | 2.56 | 2.72 | CCS(=O)(=O)c1c(-c2nc3cc(C(F)(F)F)cnc3n2C)ncc2sccc12 [Example I-7] | 100% |  | 100%
11 | 2.3 | 2.28 | CCS(=O)(=O)c1c(-c2nc3cc(C(F)(F)F)ncc3n2C)ncc2sccc12 [Example I-8] | 100% |  | 100%
